Reference: ChEMBL document CHEMBL3352118, “Inhibitors of Mutant IDH for the Treatment of Cancer” (ACS Med Chem Lett, 2014)

Molecular target: Isocitrate dehydrogenase [NADP] cytoplasmic (Homo sapiens, UniProt O75874, R132H)
Test: Inhibition of IDH1 R132H mutant (unknown origin) using a-ketoglutarate as substrate by fluorescence biochemical assay

Sequence of Isocitrate dehydrogenase [NADP] cytoplasmic (O75874 2-414 R132H limits assumed): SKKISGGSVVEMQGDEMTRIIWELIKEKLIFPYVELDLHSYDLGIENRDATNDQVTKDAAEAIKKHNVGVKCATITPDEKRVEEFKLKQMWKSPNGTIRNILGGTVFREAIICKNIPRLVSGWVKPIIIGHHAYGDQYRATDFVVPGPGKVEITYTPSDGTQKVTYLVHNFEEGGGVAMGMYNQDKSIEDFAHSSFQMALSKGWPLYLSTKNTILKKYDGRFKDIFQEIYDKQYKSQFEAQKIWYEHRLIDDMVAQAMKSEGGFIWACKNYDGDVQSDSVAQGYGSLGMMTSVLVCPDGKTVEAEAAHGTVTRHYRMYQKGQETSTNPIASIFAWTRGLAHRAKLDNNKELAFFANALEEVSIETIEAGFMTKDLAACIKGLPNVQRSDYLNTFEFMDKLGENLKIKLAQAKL

IC50 [nM]	Compound
194	C[C@H](Nc1nccc(N2C(=O)OC[C@]2(C)C2CC2)n1)c1ccc(CN2CCC(N)CC2)c(F)c1
< 15.9	C[C@H](Nc1nccc(N2C(=O)OC[C@]2(C)C2CC2)n1)c1ccc(CN2CCC(O)(C(F)(F)F)CC2)cc1F
